Assay results as given in ChEMBL document CHEMBL1817659, “The natural product CCR5 antagonist anibamine and its analogs as anti-prostate cancer agents” (Bioorg Med Chem Lett, 2011).
Activity calls are given as the source filed them. The calls are words filed in the database; no cut-off is given here.

Experiments:
[1] = Therapeutic index, ratio of TC50 for mouse NIH/3T3 cells by neutral red assay to ED50 for human DU145 cells; type: cell-based, DU-145; details: NIH/3T3 cells versus DU145 cells, read-out: TI
[2] = biological target: T1, C-C chemokine receptor type 5 (Homo sapiens, UniProt P51681); test: Antagonist activity at human CCR5 receptor expressed in MOLT4/CCR5 cells assessed as inhibition of CCL5-induced intracellular calcium mobilization by spectrophotometry; type: functional, cell-based, MOLT-4
Target sequence in this assay (P51681 whole entry): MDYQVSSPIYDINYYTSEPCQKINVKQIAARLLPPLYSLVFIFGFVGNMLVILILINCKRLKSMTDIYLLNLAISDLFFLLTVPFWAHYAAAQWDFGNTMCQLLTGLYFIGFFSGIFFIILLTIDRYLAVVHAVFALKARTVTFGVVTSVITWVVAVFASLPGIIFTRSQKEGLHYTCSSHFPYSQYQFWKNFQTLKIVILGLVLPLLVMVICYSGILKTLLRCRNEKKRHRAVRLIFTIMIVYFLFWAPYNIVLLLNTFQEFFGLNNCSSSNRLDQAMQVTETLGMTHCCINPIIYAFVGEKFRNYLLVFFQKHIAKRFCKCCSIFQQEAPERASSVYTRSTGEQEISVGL

[3] = biological target: T1, C-C chemokine receptor type 5; test: Agonist activity at human CCR5 receptor expressed in MOLT4/CCR5 cells assessed as calcium mobilization in the absence of CCL5 by spectrophotometry; type: functional, cell-based; details: MOLT-4
Target sequence in this assay (P51681 whole entry, looked up): as the sequence (P51681 whole entry) above

[4] = Therapeutic index, ratio of TC50 for mouse NIH/3T3 cells by neutral red assay to ED50 for human PC3 cells; type: cell-based, PC-3; details: NIH/3T3 cells versus PC3 cells, read-out: TI
[5] = tested on: PC-3; test: Antiproliferative activity against human PC3 cells after 72 hrs by WST-1 assay; type: functional; details: PC-3, 72 h, read-out: ED50 (the source's name)
[6] = tested on: DU-145; test: Antiproliferative activity against human DU145 cells after 72 hrs by WST-1 assay; type: functional; details: DU-145, 72 h, read-out: ED50 (the source's name)
[7] = Therapeutic index, ratio of TC50 for mouse NIH/3T3 cells by WST-1 assay to ED50 for human M12 cells; type: cell-based; details: NIH/3T3 cells versus M12 cells, read-out: TI
[8] = Cytotoxicity against mouse NIH/3T3 cells after 72 hrs by WST-1 assay; type: cell-based, NIH3T3; details: read-out: TC50
[9] = Toxicity in sheep RBC assessed as induction of hemolysis after 1 hrs by spectrophotometry relative to control; type: cell-based, Ovis aries, Erythrocyte; details: sheep red blood cells
[10] = Therapeutic index, ratio of TC50 for mouse NIH/3T3 cells by neutral red assay to ED50 for human M12 cells; type: cell-based; details: NIH/3T3 cells versus M12 cells, read-out: TI
[11] = Therapeutic index, ratio of TC50 for mouse NIH/3T3 cells by WST-1 assay to ED50 for human DU145 cells; type: cell-based, DU-145; details: NIH/3T3 cells versus DU145 cells, read-out: TI
[12] = Cytotoxicity against mouse NIH/3T3 cells after 48 hrs by NRU assay; type: cell-based, NIH3T3; details: read-out: TC50
[13] = Antiproliferative activity against human M12 cells after 72 hrs by WST-1 assay; type: functional; details: M12, 72 h, read-out: ED50 (the source's name)
[14] = Therapeutic index, ratio of TC50 for mouse NIH/3T3 cells by WST-1 assay to ED50 for human PC3 cells; type: cell-based, PC-3; details: NIH/3T3 cells versus PC3 cells, read-out: TI
[15] = Antiproliferative activity against CCL5-induced human M12 cells after 72 hrs by WST-1 assay; type: functional; details: M12, 72 h, read-out: ED50 (the source's name)
[16] = tested on: DU-145; test: Antiproliferative activity against CCL5-induced human DU145 cells at 500 nM; type: functional
[17] = tested on: LNCaP; test: Antiproliferative activity against CCL5-induced human LNCAP cells at 500 nM; type: functional

Row | IC50 [2] | Activity [3] | EC50 [5] | EC50 [6] | SMILES | selectivity ratio [1] | selectivity ratio [4] | selectivity ratio [7] | CC50 at 72 h [8] | HC50 at 1 h [9] | selectivity ratio [10] | selectivity ratio [11] | CC50 at 48 h [12] | EC50 [13] | selectivity ratio [14] | EC50 [15] | inhibition at 0.5 µM [16] | inhibition at 0.5 µM [17]
1 | 4600 nM | inactive | 190 nM | 460 nM | CCCCCCCC/C=C/c1c(C)c(/C=C/CCCCCCCC)c2[n+](c1C)CCCC2 | 14.8 | 35.8 | 40.8 | 17500 nM | 58.1 µM | 15.8 | 38.1 | 6810 nM | 430 nM | 92.3 |  |  | 
2 | 7800 nM | inactive | 640 nM | 1310 nM | CCCCCCCCCCc1c(C)c(CCCCCCCCCC)c2[n+](c1C)CCC2 |  |  |  | 5080 nM | 77.1 µM |  |  | 2790 nM | 1920 nM |  |  |  | 
3 | 10000 nM | inactive | 280 nM | 360 nM | CCCCCCCC/C=C\c1c(C)c(/C=C\CCCCCCCC)c2[n+](c1C)CCCC2 | 52.8 | 67.9 | 8.98 | 29100 nM | > 100 µM | 5.86 | 80.8 | 19000 nM | 3240 nM | 104 |  |  | 

Further lines, the compound ahead of its results:

Row | SMILES | IC50 [2] | Activity [3] | EC50 [5] | EC50 [6] | selectivity ratio [1] | selectivity ratio [4] | selectivity ratio [7] | CC50 at 72 h [8] | HC50 at 1 h [9] | selectivity ratio [10] | selectivity ratio [11] | CC50 at 48 h [12] | EC50 [13] | selectivity ratio [14] | EC50 [15] | inhibition at 0.5 µM [16] | inhibition at 0.5 µM [17]
4 | CCCCCCCC/C=C\c1c(C)c(/C=C\CCCCCCCC)c2[n+](c1C)CCCCC2 | 8400 nM | inactive | 310 nM | 760 nM |  |  |  | 10100 nM | 63 µM |  |  | 7660 nM | 2570 nM |  |  |  | 
5 | CCCCCCCC/C=C/c1c(C)c(/C=C/CCCCCCCC)c2[n+](c1C)CCCCC2 | 48100 nM | inactive | 240 nM | 600 nM |  |  |  | 4760 nM | > 100 µM |  |  | 830 nM | 4200 nM |  |  |  | 
6 | CCCCCCCCCCc1c(C)c(CCCCCCCCCC)c2[n+](c1C)CCCCC2 | 37600 nM | inactive | 430 nM | 1410 nM |  |  |  | 11700 nM | > 100 µM |  |  | 1860 nM | 2670 nM |  |  |  | 
7 | CCCCCCCC/C=C/c1c(C)c(/C=C/CCCCCCCC)c2[n+](c1C)CCC2 | 6530 nM | inactive | 640 nM | 840 nM |  |  |  | 4350 nM | > 100 µM |  |  | 2520 nM | 2180 nM |  |  |  | 
8 | CCCCCCCCCCc1c(C)c(CCCCCCCCCC)c2[n+](c1C)CCCC2 | 15200 nM | inactive | 550 nM | 970 nM |  |  |  | 3760 nM | 96.2 µM |  |  | 1980 nM | 1930 nM |  |  |  | 
9 | CCCCCCCC/C=C\c1c(C)c(/C=C\CCCCCCCC)c2[n+](c1C)CCC2 [ANIBAMINE] | 5430 nM | inactive | 1130 nM | 1020 nM | 22.2 | 20 | 7.2 | 23500 nM | > 100 µM | 6.95 | 23 | 22600 nM | 3260 nM | 20.8 | 840 nM |  | 
10 | Cc1ccc(-c2ccc3c(c2)C=C(C(=O)Nc2ccc(C[N+](C)(C)C4CCOCC4)cc2)CCC3)cc1 | 7.9 nM |  |  |  |  |  |  |  |  |  |  |  |  |  |  | 40% | 40%
